According to US4078079A, “Thiocyano-xanthate miticides” (Stauffer Chemical Company, priority 1976, dated 1978):
≈ marks a conversion by molar mass, not a printed value. Read-outs that look alike come from different tables or passages of the source.

Tests used:
[1] = system: Two-spotted Mite (2-SM) Tetranychus urticae (Koch) eggs; assay: Plant Dip Assay on Two-Spotted Mite, 2-SM Eggs; type: in vivo; conditions: infested Pinto Bean plants dipped 2-3 seconds, mortality after seven days, nymphs hatching from eggs
From the text: (§1) The Two-spotted Mite (2-SM) Tetranychus urticae (Koch) is subjected to evaluation tests for miticidal activity. Plant Dip Assay on Two-Spotted Mite [Tetranychus urticae (Koch)] Pinto Bean plants (Phaseolus sp.) approximately 10 cm tall, are transplanted into sandy loam soil in 3 inch clay pots and thoroughly infested with two-spotted mites of mixed ages and sexes. Twenty-four hours later the infested plants are inverted and dipped for 2-3 seconds in 50-50 acetone-water solutions of the test chemicals. Treated plants are held in the greenhouse, and seven days later mortality is determined for both the adult mites and the nymphs hatching from eggs which were on the plants at the time of treatment. Test concentrations range from 0.05% down to that at which 50% mortality occurs. The values obtained in this test are found in Table VII under the Columns 2SM-PE and 2SM-Eggs.

[2] = system: Two-spotted Mite (2-SM) Tetranychus urticae (Koch); assay: Plant Dip Assay on Two-Spotted Mite, 2-SM PE; type: in vivo; conditions: infested Pinto Bean plants dipped 2-3 seconds, mortality after seven days, adult mites
From the text: as §1

Staphylococcus aureus = assay: In Vitro Agar Screening Tests (Example 5); type: cell-based; conditions: S. aureus, nutrient agar, 37° C, read-out: Minimum Inhibitory Concentration
Experimental: (§2) This test measures the bactericidal and fungicidal properties of a compound when in contact with growing bacteria or fungi in an artificial medium. The test is conducted by adding 20 ml. portions of a suitable warm sterile agar solution into 20 × 100 Petri dishes. Then, the test compound, in 0.5% acetone solution, is added to the Petri dishes at levels of 1, 5, 10 and 50 ug/ml. and mixed with the warm mobile agar solution. The treated agar mixture is then allowed to come to room temperature and solidify. Cells of the chosen organism are streaked on the surface of the solidified agar and are then incubated for such lengths of time that untreated samples containing no toxicant show luxurious growth typical of the particular organism. This time varies from 24 hours to one week depending on the particular organism. The fungi are incubated at 30° C and the bacteria are incubated at 37° C. Nutrient agar is used as the medium in this test for the bacteria. Potato dextrose is used as the medium for the fungi. The extent of growth is noted at the end of the incubation period.

Escherichia coli = assay: In Vitro Agar Screening Tests (Example 5); type: cell-based; conditions: E. coli, nutrient agar, 37° C, read-out: Minimum Inhibitory Concentration
Experimental: as §2

Pencillium italicum = assay: In Vitro Agar Screening Tests (Example 5); type: cell-based; conditions: Penicillium italicum, P. italicum, potato dextrose, 30° C, read-out: Minimum Inhibitory Concentration
Experimental: as §2

Aspergillus niger = assay: In Vitro Agar Screening Tests (Example 5); type: cell-based; conditions: A. niger, potato dextrose, 30° C, read-out: Minimum Inhibitory Concentration
Experimental: as §2

[3] = partial control at this concentration

Row | Compound | MIC (Staphylococcus aureus; [3]) [µg/mL] | MIC (Escherichia coli) [µg/mL] | MIC (Pencillium italicum) [µg/mL] | MIC (Aspergillus niger; [3]) [µg/mL] | MIC (Staphylococcus aureus) [µg/mL] | MIC (Aspergillus niger) [µg/mL] | MIC (Escherichia coli; [3]) [µg/mL] | MIC (Pencillium italicum; [3]) [µg/mL] | 2-SM Eggs: concentration at which 50% mortality occurs [1] | 2-SM PE: concentration at which 50% mortality occurs [2]
1 | N#CSCSC(=S)OCCSc1ccc2ccccc2c1 [Compound 15] | 0.25 (≈ 0.711 µM) | > 50 | 5 (≈ 14.2 µM) | 5 (≈ 14.2 µM) |  |  |  |  | > .05% | > .05%
2 | CCSCCOC(=S)SCSC#N [Compound 4] |  | 50 (≈ 197 µM) | 0.5 (≈ 1.97 µM) |  | 5 (≈ 19.7 µM) | 5 (≈ 19.7 µM) |  |  |  | 
3 | Cc1ccc(SCCOC(=S)SCSC#N)cc1 [Compound 17] |  |  |  | 1 (≈ 3.17 µM) | 5 (≈ 15.8 µM) |  | 50 (≈ 158 µM) | 0.5 (≈ 1.58 µM) | > .05% | > .05%
4 | CCCCOCCOC(=S)SCSC#N [Compound 6] |  | 50 (≈ 188 µM) | 0.5 (≈ 1.88 µM) |  | 5 (≈ 18.8 µM) | 0.5 (≈ 1.88 µM) |  |  |  | .03%
5 | COCCOC(=S)SCSC#N [Compound 3] |  | 50 (≈ 224 µM) | 0.5 (≈ 2.24 µM) |  | 50 (≈ 224 µM) | 5 (≈ 22.4 µM) |  |  | .01% | .01%
6 | COc1ccc(OCCOC(=S)SCSC#N)cc1 [Compound 11] |  | 25 (≈ 79.3 µM) |  |  | 5 (≈ 15.9 µM) | 1 (≈ 3.17 µM) |  | 0.25 (≈ 0.793 µM) | .05% | .05%
7 | N#CSCSC(=S)OCCSc1ccc(Cl)cc1 [Compound 14] |  | > 50 |  | 1 (≈ 2.98 µM) | < 5 |  |  | 1 (≈ 2.98 µM) | .003% | .008%
8 | CCCCOCCOCCOC(=S)SCSC#N [Compound 7] |  |  | 5 (≈ 16.2 µM) |  | 5 (≈ 16.2 µM) | 5 (≈ 16.2 µM) |  |  |  | .03%
9 | N#CSCSC(=S)OCCSc1ccccc1 [Compound 9] |  |  | 1 (≈ 3.32 µM) |  | 5 (≈ 16.6 µM) | 1 (≈ 3.32 µM) |  |  | > .05% | > .05%

Continued, in another order:

Row | MIC (Staphylococcus aureus; [3]) [µg/mL] | MIC (Escherichia coli) [µg/mL] | MIC (Pencillium italicum) [µg/mL] | MIC (Aspergillus niger; [3]) [µg/mL] | MIC (Staphylococcus aureus) [µg/mL] | MIC (Aspergillus niger) [µg/mL] | MIC (Escherichia coli; [3]) [µg/mL] | MIC (Pencillium italicum; [3]) [µg/mL] | Compound | 2-SM Eggs: concentration at which 50% mortality occurs [1] | 2-SM PE: concentration at which 50% mortality occurs [2]
10 |  |  | 0.25 (≈ 0.835 µM) |  | 10 (≈ 33.4 µM) | 1 (≈ 3.34 µM) |  |  | Cc1ccc(OCCOC(=S)SCSC#N)cc1 [Compound 10] | > .05% | > .05%
11 |  | > 50 |  |  | 5 (≈ 15.6 µM) | 1 (≈ 3.13 µM) |  | 0.5 (≈ 1.56 µM) | N#CSCSC(=S)OCCOc1ccc(Cl)cc1 [Compound 13] | > .05% | > .05%
12 |  |  | 0.25 (≈ 0.876 µM) |  | 10 (≈ 35 µM) | 1 (≈ 3.5 µM) |  |  | N#CSCSC(=S)OCCOc1ccccc1 [Compound 2] |  | 
13 |  |  | 0.5 (≈ 1.56 µM) |  | 10 (≈ 31.3 µM) | 5 (≈ 15.6 µM) |  |  | N#CSCSC(=S)OCCOc1ccccc1Cl [Compound 8] |  | .05%
14 |  | > 50 |  |  | 5 (≈ 16.7 µM) | 1 (≈ 3.34 µM) |  | 0.125 (≈ 0.417 µM) | Cc1ccccc1OCCOC(=S)SCSC#N [Compound 12] | .03% | .01%
15 |  |  | 5 (≈ 14.1 µM) |  | 5 (≈ 14.1 µM) | 5 (≈ 14.1 µM) |  |  | N#CSCSC(=S)OCCOc1ccc(Cl)cc1Cl [Compound 18] |  | 
